Laboratory results taken from DBAASP.
In brackets after ≈: the same amount, converted by molar mass.

Key:
Experiment in all cases: ≥ marks a high value that may be exact or a test limit, other limits are often not marked, values filed in µg/mL are converted to µM
[1] = test system: Bacillus subtilis DSM 347
[2] = test system: Escherichia coli DH5alpha
[3] = test system: Kocuria rhizophila DSM 348
[4] = test system: Franconibacter helveticus DSM 18396
[5] = test system: Enterococcus faecalis CGMCC 1.595
[6] = test system: Escherichia coli AS1.349
[7] = test system: Enterococcus faecium CGMCC 1.2334
[8] = test system: Lactococcus lactis AS1.1690
[9] = test system: Pseudomonas aeruginosa CGMCC 1.860
[10] = test system: Bacillus cereus AS1.126
[11] = test system: Staphylococcus aureus AS1.72

MIC [1]	MIC [2]	MIC [3]	MIC [4]	MIC [5]	MIC [6]	MIC [7]	MIC [8]	MIC [9]	MIC [10]	MIC [11]	SMILES
≥ 32 µM	≥ 128 µM	≥ 256 µM	≥ 128 µM								CC[C@H](C)[C@H](NC(=O)CN)C(=O)NCC(=O)N[C@@H](CCCCN)C(=O)N[C@@H](C)C(=O)N[C@@H](CC(C)C)C(=O)N[C@@H](Cc1cnc[nH]1)C(=O)N[C@@H](CO)C(=O)N[C@@H](C)C(=O)N[C@@H](CCCCN)C(=O)N[C@@H](CCCCN)C(=O)N[C@@H](Cc1ccccc1)C(=O)NCC(=O)N[C@@H](CCCCN)C(=O)N[C@@H](C)C(=O)N[C@@H](Cc1ccccc1)C(=O)N[C@H](C(=O)NCC(=O)N[C@@H](CCC(=O)O)C(=O)N[C@H](C(=O)N[C@@H](CCSC)C(=O)N[C@@H](CC(N)=O)C(=O)N[C@@H](CO)C(=O)O)[C@@H](C)CC)C(C)C [GIGKALHSAKKFGKAFVGEIMNS]
1 µM (≈ 2.48 µg/mL)	16 µM (≈ 39.7 µg/mL)	8 µM (≈ 19.8 µg/mL)	4 µM (≈ 9.92 µg/mL)								CC[C@H](C)[C@H](NC(=O)CN)C(=O)NCC(=O)N[C@@H](CCCCN)C(=O)N[C@@H](Cc1ccccc1)C(=O)N[C@@H](CC(C)C)C(=O)N[C@@H](Cc1cnc[nH]1)C(=O)N[C@@H](CO)C(=O)N[C@@H](C)C(=O)N[C@@H](CCCCN)C(=O)N[C@@H](CCCCN)C(=O)N[C@@H](Cc1ccccc1)C(=O)N[C@@H](C)C(=O)N[C@@H](CCCCN)C(=O)N[C@@H](C)C(=O)N[C@@H](Cc1ccccc1)C(=O)N[C@H](C(=O)NCC(=O)N[C@@H](CCC(=O)O)C(=O)N[C@H](C(=O)N[C@@H](CCSC)C(=O)N[C@@H](CC(N)=O)C(=O)N[C@@H](CO)C(=O)O)[C@@H](C)CC)C(C)C [GIGKFLHSAKKFAKAFVGEIMNS]
				3.13 µM (≈ 4.5 µg/mL)	6.25 µM (≈ 8.98 µg/mL)	6.25 µM (≈ 8.98 µg/mL)	6.25 µM (≈ 8.98 µg/mL)	3.13 µM (≈ 4.5 µg/mL)	6.25 µM (≈ 8.98 µg/mL)	12.5 µM (≈ 18 µg/mL)	NC(N)=NCCC[C@H](NC(=O)[C@H](Cc1cnc[nH]1)NC(=O)[C@H](Cc1c[nH]c2ccccc12)NC(=O)[C@H](Cc1ccccc1)NC(=O)[C@H](CCCN=C(N)N)NC(=O)[C@H](CCCN=C(N)N)NC(=O)[C@H](Cc1c[nH]c2ccccc12)NC(=O)[C@H](Cc1cnc[nH]1)NC(=O)[C@@H](N)CCCN=C(N)N)C(=O)O [RHWRRFWHR]
